17 compounds from US10364245B2 (CHIESI FARMACEUTICI S.p.A., priority 2017, dated 2019) can be followed below.

Structures are written as SMILES.

For one assay, the target named is T1, p38 alpha (Homo sapiens, UniProt Q16539).
T1 construct: purchased Invitrogen PV3304
The experiment in a line: P38 alpha enzyme inhibition assay (Alphascreen kinase activity assay). The class given is biochemical. To be noted: 100 pM p38 alpha, 2 hours preincubation at 25° C., 250 μM ATP, ATF-2 fusion protein; read-out: p38α inhibition. The essentials:
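Phosphorylation of ATF-2 fusion protein (0.3 μg/ml) read by AlphaScreen with anti-phospho-ATF2 antibody after 1 h kinase reaction at 25 °C, initiated by 250 μM ATP. Compounds first incubated 2 h at 25 °C with 100 pM p38 alpha in pH 7.5 HEPES buffer, 1% DMSO. IC50 derived from concentration-response data.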
For orientation: In Alpha technology, singlet oxygen from a donor bead excites a nearby acceptor bead.

Assay [1] deals with Peripheral Blood Mononuclear Cells (PBMCs), TNFα release. Nature of the assay: LPS-stimulated PBMC TNFα release assay. Format: cell-based. The following applies: human PBMC, LPS (10 ng/ml), 18 h, compound 1 h before LPS; read-out: LPS-stimulated PBMC TNFα release inhibition. The essentials: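 TNFα in cell-free supernatant, read on MSD plates, gave % inhibition curves and IC50 (≥3 separate experiments). Healthy-donor PBMCs had 1 h compound exposure at 37 °C in 1% FBS medium, then 18 h stimulation with 10 ng/ml LPS, after a 3 h serum-free rest.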

T1 sequence (Q16539 whole entry): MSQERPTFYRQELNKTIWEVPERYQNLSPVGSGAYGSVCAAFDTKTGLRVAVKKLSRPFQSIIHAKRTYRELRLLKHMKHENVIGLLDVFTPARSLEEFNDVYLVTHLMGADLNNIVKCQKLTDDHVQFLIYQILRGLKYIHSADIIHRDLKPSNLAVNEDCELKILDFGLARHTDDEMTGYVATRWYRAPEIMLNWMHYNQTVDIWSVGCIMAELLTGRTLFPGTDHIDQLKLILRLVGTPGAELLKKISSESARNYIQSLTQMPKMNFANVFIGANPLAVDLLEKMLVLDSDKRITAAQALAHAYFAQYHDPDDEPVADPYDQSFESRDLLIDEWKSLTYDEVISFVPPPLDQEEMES

`CN1CC[C@@H](NC(=O)c2nc(NC(=O)N[C@H]3CC[C@@H](Oc4ccc5nnc(C(C)(C)C)n5c4)c4ccccc43)cc(C(C)(C)C)n2)C1` [Example 129, 4-(tert-butyl)-6-(3-((1S,4R)-4-((3-(tert-butyl)-[1,2,4]triazolo[4,3-a]pyridin-6-yl)oxy)-1,2,3,4-tetrahydronaphthalen-1-yl)ureido)-N-((R)-1-methylpyrrolidin-3-yl)pyrimidine-2-carboxamide]: the IC50 at p38 alpha is under 1 nM; in assay [1] it was over 5 nM.

As to `CN(C)CCOCCNC(=O)c1nc(NC(=O)N[C@H]2CC[C@@H](Oc3ccc4nnc(C(C)(C)C)n4c3)c3ccccc32)cc(C(C)(C)C)n1` [Example 130, 4-(tert-butyl)-6-(3-((1S,4R)-4-((3-(tert-butyl)-[1,2,4]triazolo[4,3-a]pyridin-6-yl)oxy)-1,2,3,4-tetrahydronaphthalen-1-yl)ureido)-N-(2-(2-(dimethylamino)ethoxy)-ethyl)pyrimidine-2-carboxamide], the IC50 at p38 alpha is under 1 nM; in assay [1], over 5 nM.

As for `CCC(C)(C)c1nnc2ccc(O[C@@H]3CC[C@H](NC(=O)Nc4cc(C(C)(C)C)nc(C(=O)NCCN5CCOCC5)n4)c4ccccc43)cn12` [Example 131, 4-(tert-butyl)-N-(2-morpholinoethyl)-6-(3-((1S,4R)-4-((3-(tert-pentyl)-[1,2,4]triazolo[4,3-a]pyridin-6-yl)oxy)-1,2,3,4-tetrahydronaphthalen-1-yl)ureido)pyrimidine-2-carboxamide], the values for the IC50 (at p38 alpha; in assay [1]) were under 1 nM and 1 to 5 nM, respectively.

As for `CCC(C)(C)c1nnc2ccc(O[C@@H]3CC[C@H](NC(=O)Nc4cc(C(C)(C)C)nc(C(=O)NCCCN5CCOCC5)n4)c4ccccc43)cn12` [Example 132, 4-(tert-butyl)-N-(3-morpholinopropyl)-6-(3-((1S,4R)-4-((3-(tert-pentyl)-[1,2,4]triazolo[4,3-a]pyridin-6-yl)oxy)-1,2,3,4-tetrahydronaphthalen-1-yl)ureido)pyrimidine-2-carboxamide], the IC50 was under 1 nM on p38 alpha and 1 to 5 nM in assay [1].

As to `CN1CCC(NC(=O)c2nc(NC(=O)N[C@H]3CC[C@@H](Oc4ccc5nnc(C(C)(C)C)n5c4)c4ccccc43)cc(C(C)(C)C)n2)CC1` [Example 134, 4-(tert-butyl)-6-(3-((1S,4R)-4-((3-(tert-butyl)-[1,2,4]triazolo[4,3-a]pyridin-6-yl)oxy)-1,2,3,4-tetrahydronaphthalen-1-yl)ureido)-N-(1-methylpiperidin-4-yl)pyrimidine-2-carboxamide], the IC50 at p38 alpha was 1 to 10 nM; in assay [1], over 5 nM.

Regarding `CN1CC[C@H](NC(=O)c2nc(NC(=O)N[C@H]3CC[C@@H](Oc4ccc5nnc(C(C)(C)C)n5c4)c4ccccc43)cc(C(C)(C)C)n2)C1` [Example 136, 4-(tert-butyl)-6-(3-((1S,4R)-4-((3-(tert-butyl)-[1,2,4]triazolo[4,3-a]pyridin-6-yl)oxy)-1,2,3,4-tetrahydronaphthalen-1-yl)ureido)-N-((S)-1-methylpyrrolidin-3-yl)pyrimidine-2-carboxamide], the results for the IC50 (on p38 alpha; in assay [1]) were under 1 nM and over 5 nM, respectively.

Turning to `COCCN(C)CCNC(=O)c1nc(NC(=O)N[C@H]2CC[C@@H](Oc3ccc4nnc(C5(C)CC5)n4c3)c3ccccc32)cc(C(C)(C)C)n1` [Example 137, 4-(tert-butyl)-N-(2-((2-methoxyethyl)(methyl)-amino)ethyl)-6-(3-((1S,4R)-4-((3-(1-methylcyclopropyl)-[1,2,4]triazolo[4,3-a]pyridin-6-yl)oxy)-1,2,3,4-tetrahydronaphthalen-1-yl)ureido)pyrimidine-2-carboxamide], the IC50 was 1 to 10 nM at p38 alpha and over 5 nM in assay [1].

Consider `COC1CN(CCNC(=O)c2nc(NC(=O)N[C@H]3CC[C@@H](Oc4ccc5nnc(C6(C)CC6)n5c4)c4ccccc43)cc(C(C)(C)C)n2)C1` [Example 138, 4-(tert-butyl)-N-(2-(3-methoxyazetidin-1-yl)ethyl)-6-(3-((1S,4R)-4-((3-(1-methylcyclopropyl)-[1,2,4]triazolo[4,3-a]pyridin-6-yl)oxy)-1,2,3,4-tetrahydronaphthalen-1-yl)ureido)pyrimidine-2-carboxamide], for which the IC50 on p38 alpha was under 1 nM; in assay [1], over 5 nM.

`CN1CCN(C(C)(C)c2nnc3ccc(O[C@@H]4CC[C@H](NC(=O)Nc5cc(C(C)(C)C)nc(C(=O)NCCO)n5)c5ccccc54)cn23)CC1` [Example 139, 4-(tert-butyl)-N-(2-hydroxyethyl)-6-(3-((1S,4R)-4-((3-(2-(4-methylpiperazin-1-yl)propan-2-yl)-[1,2,4]triazolo[4,3-a]pyridin-6-yl)oxy)-1,2,3,4-tetrahydronaphthalen-1-yl)ureido)pyrimidine-2-carboxamide]: the IC50 on p38 alpha is 1 to 10 nM; in assay [1], over 5 nM.

For the compound `CC(C)(C)c1cc(NC(=O)N[C@H]2CC[C@@H](Oc3ccc4nnc(C(C)(C)C)n4c3)c3ccccc32)nc(C(=O)NCCN2CCC2)n1` [Example 140, N-(2-(azetidin-1-yl)ethyl)-4-(tert-butyl)-6-(3-((1S,4R)-4-((3-(tert-butyl)-[1,2,4]triazolo[4,3-a]pyridin-6-yl)oxy)-1,2,3,4-tetrahydronaphthalen-1-yl)ureido)pyrimidine-2-carboxamide], the results for the IC50 (on p38 alpha; in assay [1]) were under 1 nM and over 5 nM, respectively.

Consider `CCN(CC)c1nnc2ccc(O[C@@H]3CC[C@H](NC(=O)Nc4cc(C(C)(C)C)nc(C(=O)NCCN(C)C)n4)c4ccccc43)cn12` [Example 142, 4-(tert-butyl)-6-(3-((1S,4R)-4-((3-(diethylamino)-[1,2,4]triazolo[4,3-a]pyridin-6-yl)oxy)-1,2,3,4-tetrahydronaphthalen-1-yl)ureido)-N-(2-(dimethylamino)ethyl)-pyrimidine-2-carboxamide], for which the IC50 on p38 alpha was under 1 nM; in assay [1] it was 1 to 5 nM.

Take `CCN(CC)c1nnc2ccc(O[C@@H]3CC[C@H](NC(=O)Nc4cc(C(C)(C)C)nc(C(=O)NCC(C)(C)N(C)C)n4)c4ccccc43)cn12` [Example 143, 4-(tert-butyl)-6-(3-((1S,4R)-4-((3-(diethylamino)-[1,2,4]triazolo[4,3-a]pyridin-6-yl)oxy)-1,2,3,4-tetrahydronaphthalen-1-yl)ureido)-N-(2-(dimethylamino)-2-methylpropyl)pyrimidine-2-carboxamide]: the IC50 is under 1 nM at p38 alpha and 1 to 5 nM in assay [1].

As to `CN(CCO)CCNC(=O)c1nc(NC(=O)N[C@H]2CC[C@@H](Oc3ccc4nnc(C5(C)CC5)n4c3)c3ccccc32)cc(C(C)(C)C)n1` [Example 145, 4-(tert-butyl)-N-(2-((2-hydroxyethyl)(methyl)-amino)ethyl)-6-(3-((1S,4R)-4-((3-(1-methylcyclopropyl)-[1,2,4]triazolo[4,3-a]pyridin-6-yl)oxy)-1,2,3,4-tetrahydronaphthalen-1-yl)ureido)pyrimidine-2-carboxamide], the IC50 was under 1 nM at p38 alpha and over 5 nM in assay [1].

For `CC[C@H](C)c1nnc2ccc(O[C@@H]3CC[C@H](NC(=O)Nc4cc(C(C)(C)C)nc(C(=O)NCCN(C)CC)n4)c4ccccc43)cn12` [Example 146, 4-(tert-butyl)-6-(3-((1S,4R)-4-((3-((S)-sec-butyl)-[1,2,4]triazolo[4,3-a]pyridin-6-yl)oxy)-1,2,3,4-tetrahydronaphthalen-1-yl)ureido)-N-(2-(ethyl(methyl)amino)-ethyl)pyrimidine-2-carboxamide], the IC50 is under 1 nM at p38 alpha and 1 to 5 nM in assay [1].

With `COCC(C)(C)c1nnc2ccc(O[C@@H]3CC[C@H](NC(=O)Nc4cc(C(C)(C)C)nc(C(=O)NCC5(N(C)C)CC5)n4)c4ccccc43)cn12` [Example 149, 4-(tert-butyl)-N-((1-(dimethylamino)cyclopropyl)methyl)-6-(3-((1S,4R)-4-((3-(l-methoxy-2-methylpropan-2-yl)-[1,2,4]triazolo[4,3-a]pyridin-6-yl)oxy)-1,2,3,4-tetrahydronaphthalen-1-yl)ureido)pyrimidine-2-carboxamide], the IC50 was under 1 nM on p38 alpha and 1 to 5 nM in assay [1].

On to `CN1CCN(C(C)(C)CNC(=O)c2nc(NC(=O)N[C@H]3CC[C@@H](Oc4ccc5nnc(C(C)(C)C)n5c4)c4ccccc43)cc(C(C)(C)C)n2)CC1` [Example 151, 4-(tert-butyl)-6-(3-((1S,4R)-4-((3-(tert-butyl)-[1,2,4]triazolo[4,3-a]pyridin-6-yl)oxy)-1,2,3,4-tetrahydronaphthalen-1-yl)ureido)-N-(2-methyl-2-(4-methylpiperazin-1-yl)propyl)pyrimidine-2-carboxamide], for which the IC50 on p38 alpha was under 1 nM; in assay [1] it was over 5 nM.

Regarding `CCN(C)C(C)(C)CNC(=O)c1nc(NC(=O)N[C@H]2CC[C@@H](Oc3ccc4nnc(C(C)(C)COC)n4c3)c3ccccc32)cc(C(C)(C)C)n1` [Example 152, 4-(tert-butyl)-N-(2-(ethyl(methyl)amino)-2-methylpropyl)-6-(3-((1S,4R)-4-((3-(1-methoxy-2-methylpropan-2-yl)-[1,2,4]triazolo[4,3-a]pyridin-6-yl)oxy)-1,2,3,4-tetrahydronaphthalen-1-yl)ureido)pyrimidine-2-carboxamide], the IC50 on p38 alpha is under 1 nM; in assay [1], over 5 nM.
